Experimental data published in PubChem BioAssay (NCI).
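These data come from cells grown in 96-well plates and exposed to compound for 48 hours at five concentrations. GI50: concentration for 50% inhibition of growth. TGI: total growth inhibition.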

Legend:
Assay in all cases: DTP human tumour cell line panel, 48 h
TK-10 renal = tested on: TK-10 renal
BT-549 breast = tested on: BT-549 breast
SF-295 CNS = tested on: SF-295 CNS
M14 melanoma = tested on: M14 melanoma
EKVX NSCLC = tested on: EKVX NSCLC
HCT-116 colon = tested on: HCT-116 colon
MALME-3M melanoma = tested on: MALME-3M melanoma
PC-3 prostate = tested on: PC-3 prostate

Row | Compound | GI50 (TK-10 renal) [µM] | TGI (TK-10 renal) [µM] | GI50 (BT-549 breast) [µM] | TGI (BT-549 breast) [µM] | GI50 (SF-295 CNS) [µM] | TGI (SF-295 CNS) [µM] | GI50 (M14 melanoma) [µM] | TGI (M14 melanoma) [µM] | GI50 (EKVX NSCLC) [µM] | TGI (EKVX NSCLC) [µM] | GI50 (HCT-116 colon) [µM] | TGI (HCT-116 colon) [µM] | GI50 (MALME-3M melanoma) [µM] | TGI (MALME-3M melanoma) [µM] | GI50 (PC-3 prostate) [µM] | TGI (PC-3 prostate) [µM]
1 | CC1=C(C)C2(O)C(=C(C)C1=O)/C(=C(/O)c1ccccc1)c1nc3ccccc3n12 (stereo unspecified) | 20.1 | 58.9 | 22.6 | 54.8 | 15.5 | 33.2 | 23.5 | 52.7 | 24.5 | 60.4 | 29.4 | 72 | 19.1 | 43.9 | – | –
2 | O=c1cc(-c2ccccc2)oc2cc(OC/C(=N/O)c3ccc(F)cc3)ccc12 | 13.7 | 31.8 | 15.1 | 36.9 | 8.93 | 24.6 | 46.7 | > 50 | 17.2 | > 50 | 23.4 | > 50 | – | – | 11.9 | 40.1
3 | NC(=S)N=Nc1c(O)c2ccccc2c2ccccc12 | 44.6 | > 94.1 | 1.97 | 4.95 | 3.01 | 10.2 | 1.78 | 3.35 | – | – | 4.35 | 51.5 | 1.96 | 3.58 | 9.05 | 66.6
4 | Clc1ccccc1C(Nc1ncccn1)Nc1ncccn1 | – | > 100 | – | > 100 | – | > 100 | – | > 100 | – | > 100 | – | > 100 | – | – | – | > 100
5 | N#Cc1c(N)nc(NCc2ccccc2)c(C#N)c1-c1ccc(Cl)cc1Cl | > 84.3 | > 100 | – | – | > 63.9 | > 100 | > 53.4 | > 100 | > 100 | > 100 | > 100 | > 100 | > 63.1 | > 100 | 55.7 | > 100
6 | COc1ccccc1NS(=O)(=O)c1ccc2oc(SC(C)C)nc2c1 | 18.5 | 53.8 | – | – | 11.1 | 37 | 36.1 | > 100 | 6.4 | 78.7 | 8.35 | > 100 | 12.9 | 37.5 | 12.4 | 45.7
7 | O=C(NCc1ccco1)c1cccc(NC2=C(Cl)C(=O)N(Cc3ccccc3)C2=O)c1 | 3.54 | 9.18 | 7.29 | 30.7 | 1.81 | 9.4 | 11.7 | 24.6 | 34.8 | > 100 | 3.86 | 15.1 | – | – | 5.11 | 19.6
8 | O=C(C[P+](c1ccccc1)(c1ccccc1)c1ccccc1)C[P+](c1ccccc1)(c1ccccc1)c1ccccc1 | 0.326 | 1.09 | 0.363 | 1.24 | 1.46 | 2.98 | 0.387 | 1.46 | – | – | 0.203 | 0.547 | 0.335 | 1.48 | 0.938 | 2.51
9 | COc1ccc(C2C=C(c3ccc(Cl)cc3)N=C3SC=C(C)N32)c(Br)c1 (stereo unspecified) | 4.05 | 14.4 | 3.22 | 12.4 | – | – | 3.99 | 15.7 | – | – | 2.58 | 11 | 8.31 | 22.8 | 4.67 | 43.3
10 | CCCCCCCC(=O)OCC(=O)[C@]1(O)Cc2c(O)c3c(c(O)c2[C@@H](OC2CC(N)C(O)C(C)O2)C1)C(=O)c1c(OC)cccc1C3=O (stereo partly specified) | 0.265 | 2 | – | – | 0.0471 | 1.23 | 0.0866 | 0.634 | 0.236 | 1.58 | 0.0742 | 1.09 | – | – | – | –
11 | O=C(c1ccccc1)n1c(-c2ccccc2)cs/c1=N\S(=O)(=O)c1ccc(N2N=C3c4ccccc4CC3C2c2cccs2)cc1 (stereo unspecified) | 30.5 | 70.7 | 67.9 | > 100 | 37.1 | > 100 | 33 | > 100 | 40.7 | > 100 | 30.5 | > 100 | – | – | 39.2 | > 100
12 | COc1ccc(Cn2cc3c(c2-c2ccccc2)CCc2cnoc2-3)cc1N | 0.626 | > 100 | 3.01 | > 100 | 0.154 | 3.28 | 0.227 | > 100 | 0.359 | > 100 | 0.0996 | > 33.9 | – | – | 0.551 | > 100
13 | O=C(CC(=O)c1cccc(Cl)c1)c1cccc(Cl)c1 | 4.12 | > 100 | – | – | 1.01 | > 100 | 2.35 | > 100 | 2.16 | > 100 | 1.15 | > 100 | 2.75 | > 100 | 2.41 | > 100
14 | Oc1[nH]c2ccccc2c1N=Nc1c(F)c(F)c(F)c(F)c1F | – | 62.8 | – | > 100 | – | > 100 | – | > 100 | – | > 100 | – | > 100 | – | – | – | > 100
